Holding throughout (assay type): biochemical
One assay has as its target T1, JAK3 (Homo sapiens, UniProt P52333).
T1 sequence (P52333 1-1124): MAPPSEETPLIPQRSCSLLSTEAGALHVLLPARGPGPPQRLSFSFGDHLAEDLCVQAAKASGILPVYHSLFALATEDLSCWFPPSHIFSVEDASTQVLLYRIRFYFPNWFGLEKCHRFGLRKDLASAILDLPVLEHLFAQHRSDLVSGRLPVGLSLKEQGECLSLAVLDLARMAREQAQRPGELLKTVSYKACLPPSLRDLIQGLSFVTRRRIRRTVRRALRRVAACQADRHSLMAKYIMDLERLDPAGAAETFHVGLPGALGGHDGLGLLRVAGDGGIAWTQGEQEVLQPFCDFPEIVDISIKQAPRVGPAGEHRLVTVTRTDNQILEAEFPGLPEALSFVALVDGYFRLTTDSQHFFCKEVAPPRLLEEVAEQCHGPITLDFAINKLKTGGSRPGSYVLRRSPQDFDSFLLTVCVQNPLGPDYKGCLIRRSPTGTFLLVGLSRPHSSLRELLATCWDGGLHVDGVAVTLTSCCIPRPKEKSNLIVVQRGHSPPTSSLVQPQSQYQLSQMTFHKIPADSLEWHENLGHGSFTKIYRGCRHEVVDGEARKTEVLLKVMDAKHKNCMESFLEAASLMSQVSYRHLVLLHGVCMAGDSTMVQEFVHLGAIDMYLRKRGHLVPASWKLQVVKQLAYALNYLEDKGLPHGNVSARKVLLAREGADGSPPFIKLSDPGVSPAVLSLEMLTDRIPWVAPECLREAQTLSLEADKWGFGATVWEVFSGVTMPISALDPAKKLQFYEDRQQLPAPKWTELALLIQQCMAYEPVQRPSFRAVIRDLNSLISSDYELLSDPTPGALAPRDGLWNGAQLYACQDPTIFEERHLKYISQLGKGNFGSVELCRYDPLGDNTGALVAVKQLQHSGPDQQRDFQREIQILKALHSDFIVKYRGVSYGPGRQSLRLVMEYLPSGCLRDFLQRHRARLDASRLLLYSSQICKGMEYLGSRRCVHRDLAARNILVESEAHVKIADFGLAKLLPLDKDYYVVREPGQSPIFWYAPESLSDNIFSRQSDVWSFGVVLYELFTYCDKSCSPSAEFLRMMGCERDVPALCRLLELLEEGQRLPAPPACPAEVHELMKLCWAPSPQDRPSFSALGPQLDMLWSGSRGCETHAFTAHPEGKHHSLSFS
Briefly: Inhibition of a panel of kinases, in vitro HotSpot kinase assay: JAK3. Conditions: 1 μM ATP, read-out: JAK3 (IC50).

For a further assay, the target named is LCK (Homo sapiens, UniProt P06239). Kind of assay: Inhibition of a panel of kinases, in vitro HotSpot kinase assay: LCK. The settings on record: 1 μM ATP, read-out: LCK (IC50).
For the next assay, the target named is T2, BTK-WT (Homo sapiens, UniProt Q06187).
T2 construct: purified from insect cells as a full-length construct containing an N-terminal 6X-His tag; His6 (N); made in house; host or cells: insect cells (baculovirus Sf21 in Method B)
Briefly: Btk in vitro inhibitory activity (one of Method A TR-FRET, Method B electrophoretic mobility shift, Method C radiometric filter binding). The settings on record: read-out: BTK-WT (IC50). On the technique in general: Mobility shift assays separate free from complexed probe on a gel.

Each structure is given as a SMILES string. Counter-ions that a name gives are not always drawn. Like-named read-outs stand apart in the source and are kept apart here. Some results are limits rather than exact numbers.

T2 sequence (Q06187 whole entry): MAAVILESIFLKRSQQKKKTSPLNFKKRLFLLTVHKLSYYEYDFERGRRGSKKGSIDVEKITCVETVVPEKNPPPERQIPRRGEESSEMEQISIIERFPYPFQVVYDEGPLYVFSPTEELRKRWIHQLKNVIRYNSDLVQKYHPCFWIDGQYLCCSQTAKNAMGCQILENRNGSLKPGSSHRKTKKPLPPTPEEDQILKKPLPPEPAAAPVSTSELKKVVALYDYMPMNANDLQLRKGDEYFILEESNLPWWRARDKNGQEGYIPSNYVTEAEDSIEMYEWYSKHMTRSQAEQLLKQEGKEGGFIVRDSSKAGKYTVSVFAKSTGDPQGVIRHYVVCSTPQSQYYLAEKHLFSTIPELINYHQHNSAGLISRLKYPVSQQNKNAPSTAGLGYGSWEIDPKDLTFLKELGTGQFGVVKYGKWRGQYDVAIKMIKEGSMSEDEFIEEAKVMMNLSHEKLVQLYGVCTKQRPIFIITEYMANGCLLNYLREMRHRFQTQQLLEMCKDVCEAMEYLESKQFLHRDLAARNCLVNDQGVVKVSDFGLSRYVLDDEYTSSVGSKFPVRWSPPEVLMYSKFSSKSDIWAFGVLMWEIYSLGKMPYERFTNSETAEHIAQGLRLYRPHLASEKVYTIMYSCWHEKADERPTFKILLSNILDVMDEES
Sequence of LCK (P06239 whole entry): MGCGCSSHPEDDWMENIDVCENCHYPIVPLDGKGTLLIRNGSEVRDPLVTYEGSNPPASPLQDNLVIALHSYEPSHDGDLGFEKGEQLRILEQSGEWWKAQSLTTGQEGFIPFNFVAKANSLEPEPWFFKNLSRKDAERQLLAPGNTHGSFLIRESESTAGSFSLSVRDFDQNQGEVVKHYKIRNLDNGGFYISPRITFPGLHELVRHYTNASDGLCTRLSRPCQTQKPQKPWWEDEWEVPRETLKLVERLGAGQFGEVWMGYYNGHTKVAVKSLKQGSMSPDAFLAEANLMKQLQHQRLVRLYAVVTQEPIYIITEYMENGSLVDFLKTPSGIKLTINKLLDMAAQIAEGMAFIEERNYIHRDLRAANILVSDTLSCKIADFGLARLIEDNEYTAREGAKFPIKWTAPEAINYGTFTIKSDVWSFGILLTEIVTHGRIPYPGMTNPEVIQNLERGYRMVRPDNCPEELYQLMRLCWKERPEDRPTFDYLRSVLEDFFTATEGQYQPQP

As for `C=CC(=O)N1CC[C@H](Nc2nnc(C(N)=O)c(Nc3cccc(C(=O)Nc4ccc(C(C)C)c(C)c4)c3)n2)C1` [Example C-29, (S)-3-(1-acryloylpyrrolidin-3-ylamino)-5-(3-(4-isopropyl-3-methylphenyl-carbamoyl)phenyl-amino)-1,2,4-triazine-6-carboxamide], the IC50 – broadly, the midpoint of a concentration-inhibition curve – at JAK3 (Table 12, Formula C-I) was less than 100 nM; at LCK (Table 12, Formula C-I), greater than 10000 nM; on BTK-WT (Table 12, Formula C-I) it was no more than 100 nM.

As to `Cc1cc(Nc2nc(N3CCC[C@@H](NC(=O)c4ccc(F)cc4F)C3)cnc2C(N)=O)sn1` [Example A-36, 5-[(3R)-3-(2,4-difluorobenzamido)piperidin-1-yl]-3-[(3-methyl-1,2-thiazol-5-yl)amino]pyrazine-2-carboxamide], the IC50 at JAK3 (Table 10, Formula A-I) is greater than 10000 nM; at LCK (Table 10, Formula A-I), greater than 10000 nM; at BTK-WT (Table 10, Formula A-I) it was no more than 100 nM.

Take `Cc1cc(Nc2nc(N3CCC[C@@H](NC(=O)c4ccc(N)cc4)C3)cnc2C(N)=O)sn1` [Example A-25, 5-[(3R)-3-(4-aminobenzamido)piperidin-1-yl]-3-[(3-methyl-1,2-thiazol-5-yl)amino]pyrazine-2-carboxamide]: the IC50 on JAK3 (Table 10, Formula A-I) was 100 to 1000 nM; on LCK (Table 10, Formula A-I), 100 to 1000 nM; at BTK-WT (Table 10, Formula A-I), no more than 100 nM.

Turning to `NC(=O)c1ncc(N2CCC[C@@H](NC(=O)Nc3cccnc3)C2)nc1Nc1ccc(C2CCN(C3CCCC3)CC2)cc1` [Example A-1, 3-{[4-(1-cyclopentylpiperidin-4-yl)phenyl]amino)-5-[(3R)-3-([(pyridin-3-yl)carbamoyl]amino}piperidin-1-yl]pyrazine-2-carboxamide], the IC50 was less than 100 nM on LCK (Table 10, Formula A-I) and no more than 100 nM on BTK-WT (Table 10, Formula A-I).

For the compound `Cc1cc(Nc2nc(N[C@@H]3CCN(C(=O)c4ccccc4)C3)cnc2C(N)=O)sn1` [Example C-11, 5-{[(3R)-1-benzoylpyrrolidin-3-yl]amino}-3-[(3-methyl-1,2-thiazol-5-yl)amino]pyrazine-2-carboxamide hydrochloride], the IC50 at JAK3 (Table 12, Formula C-I) was 1000 to 10000 nM; on LCK (Table 12, Formula C-I), 1000 to 10000 nM; on BTK-WT (Table 12, Formula C-I), no more than 100 nM.

Turning to `Cc1cc(Nc2nc(N3CC[C@@H](NC(=O)c4ccccc4)C3)cnc2C(N)=O)sn1` [Example A-50, 5-[(3R)-3-benzamidopyrrolidin-1-yl]-3-[(3-methyl-1,2-thiazol-5-yl)amino]pyrazine-2-carboxamide], the IC50 is greater than 10000 nM at JAK3 (Table 10, Formula A-I); 1000 to 10000 nM on LCK (Table 10, Formula A-I); 100 to 1000 nM on BTK-WT (Table 10, Formula A-I).

With `Cc1cc(Nc2nc(N[C@H]3CCCN(C(=O)c4ccccc4)C3)cnc2C(N)=O)sn1` [Example C-6, 5-{[(3S)-1-benzoylpiperidin-3-yl]amino}-3-[(3-methyl-1,2-thiazol-5-yl)amino]pyrazine-2-carboxamide], the IC50 at JAK3 (Table 12, Formula C-I) is greater than 10000 nM; at LCK (Table 12, Formula C-I), greater than 10000 nM; at BTK-WT (Table 12, Formula C-I), 1000 to 10000 nM.

Take `Cc1cc(Nc2nc(N3CCC[C@@H](NC(=O)c4ccncc4)C3)cnc2C(N)=O)sn1` [Example A-29, 3-[(3-methyl-1,2-thiazol-5-yl)amino]-5-[(3R)-3-(pyridine-4-amido)piperidin-1-yl]pyrazine-2-carboxamide]: the IC50 at JAK3 (Table 10, Formula A-I) is 100 to 1000 nM; at LCK (Table 10, Formula A-I), 1000 to 10000 nM; on BTK-WT (Table 10, Formula A-I), no more than 100 nM.

With `Cc1cc(Nc2nc(N3CCC[C@@H](NC(=O)Nc4ncc(C)s4)C3)cnc2C(N)=O)sn1` [Example A-12], the 50% inhibitory concentration (IC50) lay in the range of 1000 to 10000 nM on JAK3 (Table 10, Formula A-I); 1000 to 10000 nM at LCK (Table 10, Formula A-I); 100 to 1000 nM at BTK-WT (Table 10, Formula A-I).

On to `Cc1cc(Nc2nc(N(C)CC3CCN(C(=O)c4ccc(N(C)C)cc4)CC3)cnc2C(N)=O)sn1` [Example C-16, 5-[({1-[4-(dimethylamino)benzoyl]piperidin-4-yl}methyl)(methyl)amino]-3-[(3-methyl-1,2-thiazol-5-yl)amino]pyrazine-2-carboxamide], for which the IC50 fell in the range of 1000 to 10000 nM on JAK3 (Table 12, Formula C-I); 1000 to 10000 nM at LCK (Table 12, Formula C-I); 100 to 1000 nM on BTK-WT (Table 12, Formula C-I).

As to `CC(C)c1ccc(Nc2nc(N3CCC(C(N)=O)CC3)nnc2C(N)=O)cc1` [Example A-91, 3-(4-carbamoylpiperidin-1-yl)-5-(4-isopropylphenylamino)-1,2,4-triazine-6-carboxamide], the IC50 at LCK (Table 10, Formula A-I) is greater than 10000 nM; at BTK-WT (Table 10, Formula A-I), 100 to 1000 nM.

Turning to `COc1cccc(NC(=O)N[C@@H]2CCCN(c3cnc(C(N)=O)c(Nc4cc(C)ns4)n3)C2)c1` [Example A-16, 5-[(3R)-3-{[(3-methoxyphenyl)carbamoyl]amino}piperidin-1-yl]-3-[(3-methyl-1,2-thiazol-5-yl)amino]pyrazine-2-carboxamide], the IC50 was 100 to 1000 nM on LCK (Table 10, Formula A-I) and no more than 100 nM at BTK-WT (Table 10, Formula A-I).

For `Cc1cc(Nc2nc(N3CCC[C@@H](NC(=O)Nc4ccccc4)C3)cnc2C(N)=O)sn1` [Example A-9], the IC50 on LCK (Table 10, Formula A-I) is less than 100 nM; on BTK-WT (Table 10, Formula A-I), no more than 100 nM.

For the compound `Cc1cc(Nc2nc(N3CCC[C@@H](NC(=O)Nc4ccc(F)cc4)C3)cnc2C(N)=O)sn1` [Example A-14], the IC50 at LCK (Table 10, Formula A-I) is 100 to 1000 nM; at BTK-WT (Table 10, Formula A-I), no more than 100 nM.

Regarding `COc1ccc(NC(=O)N[C@@H]2CCCN(c3cnc(C(N)=O)c(Nc4cc(C)ns4)n3)C2)cc1` [Example A-15, 5-[(3R)-3-{[(4-methoxyphenyl)carbamoyl]amino}piperidin-1-yl]-3-[(3-methyl-1,2-thiazol-5-yl)amino]pyrazine-2-carboxamide], the IC50 on LCK (Table 10, Formula A-I) is 100 to 1000 nM; at BTK-WT (Table 10, Formula A-I) it was no more than 100 nM.

With `CS(=O)(=O)c1ccc(Nc2nc(N3CCC[C@@H](NC(=O)Nc4cccnc4)C3)cnc2C(N)=O)cc1` [Example A-43, 3-[(4-methanesulfonylphenyl)amino]-5-[(3R)-3-{[(pyridin-3-yl)carbamoyl]amino}piperidin-1-yl]pyrazine-2-carboxamide], the half-inhibitory concentration (IC50) at LCK (Table 10, Formula A-I) was 100 to 1000 nM; on BTK-WT (Table 10, Formula A-I), no more than 100 nM.

With `CS(=O)(=O)c1ccc(Nc2nc(N3CCC[C@@H](NC(=O)Nc4ccccc4)C3)cnc2C(N)=O)cc1` [Example A-42, 3-[(4-methanesulfonylphenyl)amino]-5-[(3R)-3-[(phenylcarbamoyl)amino]piperidin-1-yl]pyrazine-2-carboxamide], the IC50 on LCK (Table 10, Formula A-I) is 100 to 1000 nM; at BTK-WT (Table 10, Formula A-I), no more than 100 nM.

Consider `Cc1cc(Nc2nc(N3CCC[C@@H](NC(=O)c4ccc(C(C)(C)C)cc4)C3)cnc2C(N)=O)sn1` [Example A-37, 5-[(3R)-3-(4-tert-butylbenzamido)piperidin-1-yl]-3-[(3-methyl-1,2-thiazol-5-yl)amino]pyrazine-2-carboxamide], for which the IC50 at JAK3 (Table 10, Formula A-I) was greater than 10000 nM; at BTK-WT (Table 10, Formula A-I), no more than 100 nM.

Turning to `Cc1cc(Nc2c(C(N)=O)ncc(N3CCC[C@@H](NC(=O)c4ccc(N(C)C)cc4)C3)c2C)sn1` [Example A-66, 5-[(3R)-3-[4-(dimethylamino)benzamido]piperidin-1-yl]-4-methyl-3-[(3-methyl-1,2-thiazol-5-yl)amino]pyridine-2-carboxamide], the 50% inhibitory concentration (IC50) is greater than 10000 nM on JAK3 (Table 10, Formula A-I) and 1000 to 10000 nM at BTK-WT (Table 10, Formula A-I).

On to `CCn1cc2cc(C(=O)N[C@@H]3CCCN(c4cnc(C(N)=O)c(Nc5cc(C)ns5)n4)C3)ccc2n1` [Example A-38, N-[(3R)-1-{5-carbamoyl-6-[(3-methyl-1,2-thiazol-5-yl)amino]pyrazin-2-yl}piperidin-3-yl]-2-ethyl-2H-indazole-5-carboxamide], for which the IC50 was 1000 to 10000 nM at JAK3 (Table 10, Formula A-I) and no more than 100 nM at BTK-WT (Table 10, Formula A-I).

For `NC(=O)c1ncc(N2CCC[C@@H](NC(=O)NC3CCCCC3)C2)nc1Nc1ccc(C2CCN(C3CCCC3)CC2)cc1` [Example A-3, 5-[(3R)-3-[(cyclohexylcarbamoyl)amino]piperidin-1-yl]-3-{[4-(1-cyclopentylpiperidin-4-yl)phenyl]amino}pyrazine-2-carboxamide], the IC50 on LCK (Table 10, Formula A-I) was 100 to 1000 nM; on BTK-WT (Table 10, Formula A-I) it was no more than 100 nM.

The record behind these values is US20210070748A1, “INHIBITORS OF BRUTONS TYROSINE KINASE” (Pharmacyclics LLC, priority 2015, published 2021).
